Assay [1] deals with Coptotermes formosanus. The assay is described as follows: Insecticidal activity against Coptotermes formosanus assessed as mortality at 0.00050 g/m'2 after 24 hr. In kind it is functional.
Assay [2] relates to Coptotermes formosanus. Kind of assay: Insecticidal activity against Coptotermes formosanus assessed as mortality at 0.00025 g/m'2 after 24 hr. Type of assay: functional.
The test system of assay [3] is Coptotermes formosanus. Kind of assay: Insecticidal activity against Coptotermes formosanus assessed as mortality at 0.00050 g/m'2 after 48 hr. Type of assay: functional.
The test system of assay [4] is Coptotermes formosanus. The assay is described as follows: Insecticidal activity against Coptotermes formosanus assessed as mortality at 0.00005 g/m'2 after 24 hr. In kind it is functional.
Assay [5] deals with Coptotermes formosanus. The assay is described as follows: Insecticidal activity against Coptotermes formosanus assessed as mortality at 0.00005 g/m'2 after 48 hr. Type of assay: functional.
In assay [6] the test system is Coptotermes formosanus. Kind of assay: Insecticidal activity against Coptotermes formosanus assessed as mortality at 0.00010 g/m'2 after 48 hr. Type of assay: functional.
Assay [7] deals with Coptotermes formosanus. The assay is described as follows: Insecticidal activity against Coptotermes formosanus assessed as mortality at 0.00010 g/m'2 after 24 hr. In kind it is functional.
Assay [8] relates to Coptotermes formosanus. Kind of assay: Insecticidal activity against Coptotermes formosanus assessed as mortality at 0.00025 g/m'2 after 48 hr. Type of assay: functional.
In assay [9] the test system is Coptotermes formosanus. The assay is described as follows: Insecticidal activity against Coptotermes formosanus assessed as mortality. In kind it is functional.
In assay [10] the test system is Coptotermes formosanus. The assay is described as follows: Insecticidal activity against Coptotermes formosanus assessed as mortality at 0.00001 g/m'2 after 24 hr. In kind it is functional.
For assay [11], the system named is Dermatophagoides farinae. Kind of assay: Insecticidal activity against Dermatophagoides farinae assessed as mortality at 1 g/m'2 after 24 hr by clip method. Type of assay: functional.
The subject of assay [12] is Dermatophagoides farinae. Kind of assay: Insecticidal activity against Dermatophagoides farinae assessed as mortality after 24 hr by clip method. In kind it is functional.
In assay [13] the test system is Dermatophagoides farinae. Kind of assay: Insecticidal activity against Dermatophagoides farinae assessed as mortality at 0.50 g/m'2 after 24 hr by clip method. In kind it is functional.
The test system of assay [14] is Tyrophagus putrescentiae. The assay is described as follows: Insecticidal activity against Tyrophagus putrescentiae assessed as mortality at 0.10 g/m'2 after 24 hr by clip method. In kind it is functional.
Assay [15] has as its system Tyrophagus putrescentiae. The assay is described as follows: Insecticidal activity against Tyrophagus putrescentiae assessed as mortality at 0.50 g/m'2 after 24 hr by clip method. Type of assay: functional.
Assay [16] has as its system Tyrophagus putrescentiae. The assay is described as follows: Insecticidal activity against Tyrophagus putrescentiae assessed as mortality at 0.20 g/m'2 after 24 hr by clip method. Type of assay: functional.
The subject of assay [17] is Dermatophagoides farinae. The assay is described as follows: Insecticidal activity against Dermatophagoides farinae assessed as mortality at 0.20 g/m'2 after 24 hr by clip method. In kind it is functional.
The test system of assay [18] is Dermatophagoides farinae. The assay is described as follows: Insecticidal activity against Dermatophagoides farinae assessed as mortality at 0.10 g/m'2 after 24 hr by clip method. In kind it is functional.
In assay [19] the test system is Tyrophagus putrescentiae. Kind of assay: Insecticidal activity against Tyrophagus putrescentiae assessed as mortality at 1 g/m'2 after 24 hr by clip method. Type of assay: functional.
The test system of assay [20] is Tyrophagus putrescentiae. Kind of assay: Insecticidal activity against Tyrophagus putrescentiae assessed as mortality after 24 hr by clip method. Type of assay: functional.
Another assay has as its target T1, Thermolysin (Bacillus thermoproteolyticus, UniProt P00800).
T1 sequence (P00800 whole entry): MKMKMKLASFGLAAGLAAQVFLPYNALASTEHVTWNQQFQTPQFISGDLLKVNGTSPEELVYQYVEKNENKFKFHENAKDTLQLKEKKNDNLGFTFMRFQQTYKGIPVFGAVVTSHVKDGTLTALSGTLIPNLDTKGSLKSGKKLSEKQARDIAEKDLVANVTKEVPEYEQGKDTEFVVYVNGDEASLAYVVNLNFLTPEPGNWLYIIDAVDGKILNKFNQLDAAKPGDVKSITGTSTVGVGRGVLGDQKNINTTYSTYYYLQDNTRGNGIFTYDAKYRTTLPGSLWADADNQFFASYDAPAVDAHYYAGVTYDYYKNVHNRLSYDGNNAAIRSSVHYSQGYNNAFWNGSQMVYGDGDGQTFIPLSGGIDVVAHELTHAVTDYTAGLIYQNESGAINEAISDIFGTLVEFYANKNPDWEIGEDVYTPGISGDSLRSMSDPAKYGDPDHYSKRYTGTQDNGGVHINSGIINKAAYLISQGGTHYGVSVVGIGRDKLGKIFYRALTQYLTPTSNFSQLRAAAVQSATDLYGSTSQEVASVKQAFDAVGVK
Kind of assay: Inhibition of Bacillus thermoproteolyticus thermolysin after 15 min.

The target of another assay is T2, Collagenase ColG (Clostridium histolyticum, UniProt Q9X721).
T2 sequence (Q9X721 whole entry): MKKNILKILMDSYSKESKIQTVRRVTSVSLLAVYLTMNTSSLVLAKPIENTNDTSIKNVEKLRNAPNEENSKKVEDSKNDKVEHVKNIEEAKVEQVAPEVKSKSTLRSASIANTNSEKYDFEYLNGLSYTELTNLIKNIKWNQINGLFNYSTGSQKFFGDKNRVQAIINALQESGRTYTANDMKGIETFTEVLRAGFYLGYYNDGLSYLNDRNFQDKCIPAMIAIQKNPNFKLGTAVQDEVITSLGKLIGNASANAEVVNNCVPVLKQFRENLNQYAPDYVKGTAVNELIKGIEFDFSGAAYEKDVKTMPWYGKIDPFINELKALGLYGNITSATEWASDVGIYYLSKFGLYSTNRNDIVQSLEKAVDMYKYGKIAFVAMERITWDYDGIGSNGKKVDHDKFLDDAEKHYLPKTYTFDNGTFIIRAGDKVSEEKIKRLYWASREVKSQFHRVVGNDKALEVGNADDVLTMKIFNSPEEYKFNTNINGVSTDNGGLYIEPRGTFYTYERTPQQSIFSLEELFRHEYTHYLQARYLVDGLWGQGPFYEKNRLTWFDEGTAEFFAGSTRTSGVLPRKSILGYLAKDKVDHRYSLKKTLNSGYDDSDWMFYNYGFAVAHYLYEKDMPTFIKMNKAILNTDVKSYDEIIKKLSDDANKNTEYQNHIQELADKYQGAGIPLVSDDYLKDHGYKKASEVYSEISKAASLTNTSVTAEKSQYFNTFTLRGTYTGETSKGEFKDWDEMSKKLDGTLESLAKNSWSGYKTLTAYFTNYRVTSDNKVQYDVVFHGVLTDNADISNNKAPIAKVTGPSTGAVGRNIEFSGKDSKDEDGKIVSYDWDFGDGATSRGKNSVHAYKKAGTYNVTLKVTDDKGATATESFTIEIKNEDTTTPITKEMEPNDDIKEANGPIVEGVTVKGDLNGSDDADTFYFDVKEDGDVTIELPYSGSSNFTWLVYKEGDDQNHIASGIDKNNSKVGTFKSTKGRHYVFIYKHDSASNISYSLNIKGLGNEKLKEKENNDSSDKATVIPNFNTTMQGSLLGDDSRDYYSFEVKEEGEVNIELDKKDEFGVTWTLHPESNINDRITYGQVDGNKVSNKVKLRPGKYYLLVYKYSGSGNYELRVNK
The assay is described as follows: Inhibition of Clostridium histolyticum collagenase after 15 min. Also on record: species or system Hathewaya histolytica.

For the next assay, the target named is T3, Carboxypeptidase A1 (Bos taurus, UniProt P00730).
T3 sequence (P00730 whole entry): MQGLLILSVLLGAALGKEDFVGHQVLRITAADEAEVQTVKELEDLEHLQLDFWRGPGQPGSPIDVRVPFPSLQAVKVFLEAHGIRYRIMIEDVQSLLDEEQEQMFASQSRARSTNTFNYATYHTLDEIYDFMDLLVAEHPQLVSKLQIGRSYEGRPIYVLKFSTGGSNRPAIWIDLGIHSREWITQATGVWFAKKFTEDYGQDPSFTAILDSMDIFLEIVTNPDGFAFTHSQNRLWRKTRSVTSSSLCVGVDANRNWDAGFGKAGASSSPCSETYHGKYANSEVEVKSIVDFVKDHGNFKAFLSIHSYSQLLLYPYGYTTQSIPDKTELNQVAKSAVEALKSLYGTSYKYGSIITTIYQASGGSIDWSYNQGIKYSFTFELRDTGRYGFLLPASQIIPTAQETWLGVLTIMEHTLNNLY
The assay is described as follows: Inhibition of Bos taurus (bovine) pancrease carboxypeptidase A after 15 min.

Usually mortality stands for the percentage killed. As usually defined, the pIC50 is the IC50 on a negative log10 scale, so that one unit is a factor of ten.

pIC50: −log10 of the molar value.

Take `CCOP(=S)(OCC)Oc1nc(Cl)c(Cl)cc1Cl` [CHLORPYRIFOS]: the mortality turned out to be 100% in the assay with Coptotermes formosanus [1]; 60% with Coptotermes formosanus [2]; 100% in the assay with Coptotermes formosanus [3]; 10% with Coptotermes formosanus [4]; 40% in the assay with Coptotermes formosanus [5]; 75% in the assay on Coptotermes formosanus [6]. Further, the mortality in the assay with Coptotermes formosanus [7] turned out to be 25%; with Coptotermes formosanus [8], 100%; in the assay on Coptotermes formosanus [10], 0%. For the same molecule, the LC50 in the assay on Coptotermes formosanus [9] amounted to 0.00016 g/m2.

As to `CCN(CC)C(=O)c1cccc(C)c1` [DIETHYLTOLUAMIDE], the mortality with Dermatophagoides farinae [11] is reported as 45.5%; with Dermatophagoides farinae [13] it was 20.5%; in the assay with Tyrophagus putrescentiae [14] it was 0%; in the assay with Tyrophagus putrescentiae [15], 18.9%; with Tyrophagus putrescentiae [16] it was 4.5%; in the assay with Dermatophagoides farinae [17], 7.2%. In addition, the figures for the mortality in the assay on Dermatophagoides farinae [18] and in the assay with Tyrophagus putrescentiae [19] were 0% and 67.1%, respectively. The values for the LC50 with Dermatophagoides farinae [12] and in the assay on Tyrophagus putrescentiae [20] were 0.79 g/m2 and 1.46 g/m2, respectively.

In the case of `c1cnc2c(c1)ccc1cccnc12` [PHENANTHROLINE], the pIC50 was 3.44 against Thermolysin, 3.73 against Collagenase ColG and 3.37 against Carboxypeptidase A1.

The values above are taken from ChEMBL document CHEMBL3046644, “Biological activity of tropolone” (Biol Pharm Bull, 2003).
